One may read the EC50 as the concentration giving half of the maximal effect.

Experimental findings from paper PMC9313321 (Biomedicines, 2022) are described below.

The target in one experiment is T1, Aβ42 self-aggregation (Homo sapiens, UniProt P05067).
T1 construct: Beta-amyloid protein, fragment 1-42; purchased GeneCust
The experiment can be described thus: biochemical. The class given is biochemical. To be noted: for inhibition at 20 µM: read-out: Aβ42 Self-Aggreg. Inhib; for Aβ42 Self-Aggreg. Inhib: 20 μM inhibitor, absence of copper, thioflavin-T fluorescence, 37 °C 24 h. Here is the method: The inhibition of Aβ42 aggregation and Cu(II)-induced Aβ42 aggregation, carried out by the RIV–BIM hybrids, was studied using a reported method based on the fluorescence emission of thioflavin T [52, 53].
Solutions of phosphate buffer 0.215 M at pH = 8.00, Na2CO3 300 μM in distilled water, NaOH 250 mM in distilled water, glycine-NaOH 50 mM buffer at pH = 8.50 and CuCl2 240 μM in phosphate buffer were prepared. Stock solutions of […] of the RIV–BIM compounds were prepared in MeOH (with 20% DMSO). Working solutions of 240 μM of the RIV–BIM hybrids were prepared by the proper dilution of their stock solutions with phosphate buffer. A working solution of glycine-NaOH 50 mM buffer at pH = 8.50 containing 5 μM of thioflavin T (ThT) was prepared daily. Aβ42 (GeneCust) was pre-treated with 1,1,1,3,3,3-hexafluoro-2-propanol (HFIP) to obtain a solution of 0.149 mM by brief sonication and vortexing, which was kept covered overnight at room temperature. From the Aβ42 solution, aliquots of 250 μL were placed into Eppendorf tubes under ice and set to evaporate inside a hood at room temperature overnight. When the contents of the Eppendorf tubes were dried, the Aβ42 aliquots were stored at −20 °C until needed. To obtain the Aβ42 working solution, the Aβ42 aliquots were dissolved with a freshly prepared mixture of 69.5 μL of CH3CN/Na2CO3 (300 μM)/NaOH (250 mM) (48.3/48.3/3.4, v/v/v) by brief sonication and vortexing to obtain an Aβ42 solution of 531.24 μM. To this solution, 392.5 μL of phosphate buffer was added, achieving an Aβ42 working solution of 80 μM. To prepare the incubations, three replicates of Aβ42 alone (30 μL Aβ42 80 μM + 30 μL phosphate buffer), Aβ42 with RIV–BIM (30 μL Aβ42 80 μM + 10 μL RIV–BIM 240 μM + 20 μL phosphate buffer), Aβ42 with copper (30 μL Aβ42 80 μM + 10 μL CuCl2 240 μM + 20 μL phosphate buffer) and Aβ42 with copper and RIV–BIM (30 μL Aβ42 80 μM + 10 μL CuCl2 240 μM + 10 μL RIV–BIM 240 μM + 10 μL phosphate buffer) were placed in Eppendorfs. To obtain the blank solutions, a similar number of Eppendorfs, replacing Aβ42 with phosphate buffer, were prepared. Incubations were performed in a water bath at 37 °C with agitation for 24 h. Afterwards, 180 μL of glycine-NaOH 50 mM buffer at pH = 8.50 containing 5 μM of ThT was added to each Eppendorf and then they were vortexed. Finally, 200 μL of solution from each Eppendorf was placed in the wells of a microplate and fluorescence measurements were monitored using a Spectramax Gemini EM (Molecular Devices) fluorimeter with an excitation wavelength of 446 nm and an emission wavelength of 485 nm. Blank signals were subtracted from the corresponding samples. The fluorescence intensity of the Aβ42 + RIV–BIM solution was compared to that of the Aβ42 solution to obtain the inhibition of Aβ42 self-aggregation for each compound. The fluorescence intensity of the Aβ42 + Cu(II) + RIV–BIM solution was compared to that of the Aβ42 + Cu(II) solution to obtain the inhibition of the Cu(II)-induced Aβ42 aggregation for each hybrid.
The anti-amyloidogenic capacity of the compounds was assessed in vitro using the thioflavin T (ThT) method. To record fluorescence emission, excitation (446 nm) and emission (485 nm) wavelengths were used. When ThT binds to amyloid fibrils, an increase in absorbance and emission of this dye occurs with concomitant red shifts of the respective spectra. The percent of inhibition of Aβ42 aggregation is shown in Table 1, and the assays were performed in the presence of 20 μM of inhibitor. These concentration conditions were used to overcome solubility problems of some compounds in the aqueous phosphate buffer working medium. […]. […]

Experiment [1] is described as follows: Radical scavenging activity (DPPH method). Conditions: read-out: Antioxid. EC50, 30 min, absorbance 517 nm.
Protocol: To determine the radical scavenging activity (antioxidant activity) of the novel RIV–BIM hybrids, the DPPH method was performed as previously described in the literature [49]. Working solutions of 20 mg of the ligands were prepared daily in 10 mL of MeOH (with a 10% of DMSO). A working solution of 2 mg DPPH in 100 mL MeOH was prepared daily, and its absorbance was checked to be between 0.75 and 1.00 (a.u.). […] Each one of the calibrate points was kept for 30 min under darkness to allow the ligands to exert their antioxidant effects. After 30 min, an auto-zero was performed with MeOH in both sample and reference cells, using a UV–Vis spectrophotometer. […] The antioxidant activity (%AA) for each point was calculated using the following equation: %AA=ADPPH−Aligand/ADPPH×100
The radical scavenging activity of the RIV–BIM compounds was determined by a spectrophotometric method involving the 2,2-diphenyl-1-picrylhydrazyl (DPPH) free radical [35, 64].

T1 sequence (P05067 672-713 limits assumed): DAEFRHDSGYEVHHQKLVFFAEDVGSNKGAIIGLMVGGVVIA

In the case of `CCN(C)C(=O)Oc1cccc(NC(=O)c2ccc3nc(-c4ccccc4O)[nH]c3c2)c1` [Compound 4a, 3-(2-(2-Hydroxyphenyl)-1H-benzo[d]imidazole-6-carboxamido)phenyl Ethylmethylcarbamate], the inhibition at 20 µM at Aβ42 self-aggregation came to 39%.
As for `CCN(C)C(=O)Oc1cccc(CNC(=O)c2ccc3nc(-c4ccccc4O)[nH]c3c2)c1` [Compound 4b, 3-((2-(2-Hydroxyphenyl)-1H-benzo[d]imidazole-6-carboxamido)methyl) Phenyl Ethylmethylcarbamate], in experiment [1], the concentration for a half-maximal effect (EC50) amounted to 0.9 ± 0.1 mM. Moreover, the inhibition at 20 µM on Aβ42 self-aggregation was 39.6%.
Turning to `CCN(C)C(=O)Oc1cccc(CCNC(=O)c2ccc3nc(-c4ccccc4O)[nH]c3c2)c1` [Compound 4c, 3-(2-(2-(2-Hydroxyphenyl)-1H-benzo[d]imidazole-6-carboxamido)ethyl) Phenylethylmethylcarbamate], the 50% effective concentration (EC50) in experiment [1] came out at 10 mM. Further, on Aβ42 self-aggregation, the “Aβ42 Self-Aggreg. Inhib” value is listed as “very weakly effective” and the inhibition at 20 µM was found to be 21.2%.
For `CCN(C)C(=O)Oc1ccc(CCCNC(=O)c2ccc3nc(-c4ccccc4O)[nH]c3c2)cc1` [Compound 4d, 4-(3-(2-(2-Hydroxyphenyl)-1H-benzo[d]imidazole-6-carboxamido)propyl) Phenyl Ethylmethylcarbamate], at Aβ42 self-aggregation, the “Aβ42 Self-Aggreg. Inhib” value was “very weakly effective” and the inhibition at 20 µM is 20.1%.
With `CCN(C)C(=O)Oc1cccc(NC(=O)c2cccc3[nH]c(-c4ccccc4O)nc23)c1` [Compound 5a, 3-(2-(2-Hydroxyphenyl)-1H-benzo[d]imidazole-4-carboxamido)phenyl Ethylmethylcarbamate], the inhibition at 20 µM on Aβ42 self-aggregation was 44.5%.
The same measure, in the same setting: the figure for `CCN(C)C(=O)Oc1cccc(CNC(=O)c2cccc3[nH]c(-c4ccccc4O)nc23)c1` [Compound 5b, 3-((2-(2-Hydroxyphenyl)-1H-benzo[d]imidazole-4-carboxamido)methyl) Phenyl Ethylmethylcarbamate] is 58.7%.
Consider `CCN(C)C(=O)Oc1ccc(CCCNC(=O)c2cccc3[nH]c(-c4ccccc4O)nc23)cc1` [Compound 5d, 4-(3-(2-(2-Hydroxyphenyl)-1H-benzo[d]imidazole-4-carboxamido) Propyl) Phenyl Ethyl(methyl)carbamate], for which the inhibition at 20 µM at Aβ42 self-aggregation came to 42.1%.
